The text below walks through data of article PMC7726444 (Frontiers in Pharmacology, 2020).

The structures appear in SMILES notation.

Assay [1] concerns the target T1, doubly truncated TPH1 (ΔNH102-ΔCOOH402) (Homo sapiens, UniProt P17752).
T1 construct: The ΔNH102-ΔCOOH402 human TPH1 gene was cloned; six-His (C); made in house
Briefly: Tryptophan hydroxylase enzymatic activity assay (HPLC quantification of 5-OH-Trp), doubly truncated TPH1. Type of assay: biochemical.

The target in assay [2] is T1, doubly truncated TPH1 (ΔNH102-ΔCOOH402). Nature of the assay: Mechanism of action and kinetics analysis of TPH1 inhibition (Michaelis-Menten). Type of assay: biochemical. The procedure:
5-OH-Trp formation was measured either at a fixed concentration (200 µM) of the cofactor, BH4, and varying concentrations (0.625–20 µM) of the substrate, L-Trp, or in the presence of varying concentrations of BH4 (2.4–200 µM) and a fixed concentration (20 µM) of L-Trp. Kinetic parameters were estimated by fitting the Michaelis-Menten model to the data using nonlinear regression.
Human doubly truncated TPH1 (ΔNH102-ΔCOOH402) was used for kinetic protein-ligand interaction studies. The enzyme assays were performed as described above. […] When enzyme activity was measured as a function of substrate (L-Trp) concentration (0.625–20 µM), the concentration of the cofactor (BH4) was fixed at 200 µM.

A further assay deals with CD-1 mice. Briefly: Tail suspension test. It is filed as in vivo, mouse. The settings on record: 100 mg/kg i.p. once daily for 4 days, test 20 h after last dose, 6 min trial; p = 0.028, Mann-Whitney test. From the text:
Male CD-1 mice (Janvier Labs, Le Genest-St-Isle, France), 3 months of age were used. The animals in the different treatment groups were matched for age. The University of Barcelona’s Committee on Animal Use and Care approved the protocol. Animals were housed and tested in compliance with the guidelines described in the Guide for the Care and Use of Laboratory Animals ([Clark et al., 1997]) and following the European Union directives (2010/63/EU), FELASA and ARRIVE guidelines. All efforts were made to minimize animal suffering and the number of animals used. All animals were housed in groups of five in standard cages with ad libitum access to food and water and maintained under a 12-h dark/light cycle (starting at 7:30 AM), 22°C temperature, and 66% humidity. […] While all treated animals were tested in the tail suspension test, brain tissue from eight of the vehicle-treated and nine of the omeprazole-treated mice was used for subsequent analysis of 5-HT content. Serum samples for 5-HT analysis were drawn from another nine vehicle-treated and eight omeprazole-treated mice.
Immobility time in the tail suspension test is known to be sensitive to manipulations that alter brain 5-HT content ([Garcia-Miralles et al., 2016]; [Palucha-Poniewiera et al., 2017]). […] Each animal was suspended for 6 min and the time spent immobile during suspension was counted using a stopwatch. […]

Assay [3] has as its system 5-HT content in brain and serum. Briefly: LC-MS/MS determination of 5-HT levels in brain and serum. Type of assay: in vivo, mouse. The settings on record: 100 mg/kg i.p. once daily for 4 days. From the text:
Male CD-1 mice (Janvier Labs, Le Genest-St-Isle, France), 3 months of age were used. The animals in the different treatment groups were matched for age. The University of Barcelona’s Committee on Animal Use and Care approved the protocol. Animals were housed and tested in compliance with the guidelines described in the Guide for the Care and Use of Laboratory Animals ([Clark et al., 1997]) and following the European Union directives (2010/63/EU), FELASA and ARRIVE guidelines. All efforts were made to minimize animal suffering and the number of animals used. All animals were housed in groups of five in standard cages with ad libitum access to food and water and maintained under a 12-h dark/light cycle (starting at 7:30 AM), 22°C temperature, and 66% humidity. […]
Quantitative analysis of 5-HT was carried out by liquid chromatography coupled with tandem mass spectrometry (LC-MS/MS) using an Agilent 1,290 Infinity UHPLC chromatograph (Santa Clara, CA) coupled to a 6500 QTRAP mass spectrometer (ABSciex, Framingham, MA) equipped with an Ion Drive Turbo V ion source operating in positive ion mode. […] Sample-to-sample differences in recovery, liquid handling, and ionization efficiency were compensated for by normalizing to the amount of 5-HT-d4 detected in the samples. […]

T1 sequence (P17752 102-402, stated change not applied): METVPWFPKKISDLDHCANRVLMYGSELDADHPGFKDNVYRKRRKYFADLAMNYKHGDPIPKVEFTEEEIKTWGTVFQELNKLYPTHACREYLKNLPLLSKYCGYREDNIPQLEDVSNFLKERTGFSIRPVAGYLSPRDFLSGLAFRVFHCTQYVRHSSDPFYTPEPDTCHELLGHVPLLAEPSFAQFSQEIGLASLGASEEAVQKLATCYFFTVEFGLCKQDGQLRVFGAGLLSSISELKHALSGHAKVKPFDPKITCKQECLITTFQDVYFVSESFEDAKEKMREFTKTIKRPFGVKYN

As to `COc1ccc2[nH]c([S+]([O-])Cc3ncc(C)c(OC)c3C)nc2c1` (stereo not drawn) [Omeprazole], the “reduction of TPH1 activity” value in assay [1] (100 µM compound, preliminary activity assay) is “more than 50%”. In addition, it took 3.09 µM to reach half-maximal inhibition in assay [1] (doubly truncated TPH1, 20 µM L-Trp, 200 µM BH4, 37°C, mean (95% confidence interval), three experiments in duplicate) (IC50). In addition, the Vmax in assay [2] ((A) L-Trp 0.625–20 µM, BH4 200 µM, omeprazole 1 µM) is 24.96 (23.18–26.74) µmol/min/mg; in assay [2] ((A) L-Trp 0.625–20 µM, BH4 200 µM, omeprazole 10 µM), 21.08 (18.84–23.32) µmol/min/mg; in assay [2] ((A) L-Trp 0.625–20 µM, BH4 200 µM, omeprazole 100 µM) it was 7.03 (6.07–7.98) µmol/min/mg; in assay [2] ((B) BH4 2.4–200 µM, L-Trp 20 µM, omeprazole 1 µM), 39.93 (37.18–42.69) µmol/min/mg; in assay [2] ((B) BH4 2.4–200 µM, L-Trp 20 µM, omeprazole 10 µM), 31.06 (28.90–33.21) µmol/min/mg; in assay [2] ((B) BH4 2.4–200 µM, L-Trp 20 µM, omeprazole 100 µM) it was 21.11 (18.96–23.26) µmol/min/mg. The “mode of TPH1 inhibition” value in assay [2] (with respect to L-Trp and to BH4) is given as “non-competitive inhibitor”. In the assay with CD-1 mice, the “time spent immobile in tail suspension test vs vehicle” value is on record as “significantly less time immobile”. Further, in assay [3] (serum), the “5-HT content in serum vs vehicle” value is “significantly higher 5-HT content”. The “5-HT content in brain vs vehicle” value in assay [3] (whole-brain tissue) is “significantly higher 5-HT content”.
